The values that follow come from US7772383B2, “Chemical PCR: Compositions for enhancing polynucleotide amplification reactions” (The Trustees of Princeton University, priority 2002, dated 2010).

In data set [1] the test system is human myeloid leukocyte c-jun cDNA. Nature of the data set: PCR amplification of c-jun with lower denaturation/extension temperatures. It counts as biochemical. As to conditions: for Potency: annealing 50° C. On the procedure: (§1) Amplification reactions were carried out under the following general conditions. Those skilled in the art will appreciate, however, that to the extent that the conditions (set forth in this application) required for specific experiments described in this example were inconsistent with the following general conditions, limited exceptions to the following general conditions were made The general conditions were as follows: 10 Mm Tris-HCl (Ph 8.8), 50 Mm KCl, 1.5 Mm MgCl2, 0.01% (w/v) gelatin, 0.2 Um primers, 0.06 ng/ul template, 0.2 Mm each Dntp, 0.04 U/ul Taq polymerase. The templates used were bovine brain N-WASP cDNA (1518 bp), a 996 by segment of human myeloid leukocyte c-jun cDNA, a 511 by segment of human prostate-specific membrane antigen (PSM) cDNA, and bovine brain glycolipid transfer protein (GTP) cDNA (660 bp). cDNA synthesis was carried out using the FIRST-STRAND® RT-PCR kit from Stratagene on the respective mRNAs purchased from Clontech. All amplification reactions for gene were carried out using a single master batch of cDNA. Taq polymerase and dNTPs were obtained from Stratagene. Primers were obtained from Genosys. Primer melting temperatures (Tms) were calculated using the Genosys oligo calculator program. The sequences of the primers were as follows.
(§2) Polymerase chain reactions for the N-WASP gene were conducted on a ROBOCYCLER® Gradient 40 thermal cycler from Stratagene using 100 ul solutions in 600 ul thin-walled tubes. For expediency, amplification of c-jun, PSM and GTP was carried out in a ROBOCYCLER® Gradient 96 thermal cycler from Stratagene using 50 ul solutions in 200 ul thin-walled tubes. Prior to Taq polymerase addition, a hotstart protocol was carried out that consisted of an initial cycle of 95° C. for 5 minutes (11) to ensure complete first-strand separation, followed by a cycle of 54° C. for 5 minutes. Amplifications were run for 30 cycles. Denaturation was done for 1 minute at the minimum temperatures that yielded discernable amplification: 92° C. for N-WASP and 95° C. for c-jun, PSM and GTP. Extension was done at 72° C. for periods depending on target length: 2 minutes for N-WASP, 1.5 minutes for c-jun and GTP, and 1 minute for PSM. Annealings were carried out either at fixed concentrations of additives using temperature gradients of 38-56° C. for N-WASP and 44-58° C. for the other targets, or at varying concentrations of additives using fixed temperatures of 41° C. for N-WASP, 50° C. for c-jun and PSM, and 54° C. for GTP.
Amplification products were analyzed by agarose gel electrophoresis on 0.8% agarose gels in which 20 ul reaction products were loaded with 4 ul loading buffer. […] Densitometric quantitation of amplification products was carried out using IMAGE SCANNER® and IMAGE MASTER® software from Amersham Pharmacia. […]

For data set [2], the system named is human prostate-specific membrane antigen (PSM) cDNA. Nature of the data set: Pilot low temperature PCR of PSM with 1,5-pentanediol. The class given is biochemical. As to conditions: for PSM Specificity: densitometric volume of target band as percent of total volume; for PSM Potency: normalized: 1,3-butanediol (95/72° C.) = 1. The procedure: as §1, §2
Amplification products were analyzed by agarose gel electrophoresis on 0.8% agarose gels in which 20 ul reaction products were loaded with 4 ul loading buffer. Gels were stained with ethidium bromide, visualized on a UV transilluminator (Fisher), and documented by photography. Densitometric quantitation of amplification products was carried out using IMAGE SCANNER® and IMAGE MASTER® software from Amersham Pharmacia. Background correction was done using the software's rolling disc method. […] GTP was used as the target because it has the lowest GC content of the three templates used. PCR reactions were carried out in the presence of 1.0 and 1.5M 1,5-pentanediol under the conditions of 85° C. denaturing and 53° C. extension, using a 50° C. annealing temperature. In addition, 1.5M and 2.0M 1,5-pentandediol were tested using an 80° C. denaturing temperature, with identical annealing and extension temperature. Finally, 2.0, 2.5, and 3.0M 1,5-pentanediol were tested in GTP amplification employing a 75° C. denaturation temperature.
PSM was also tested with 1.0 and 1.5M 1,5-pentanediol using a 85° C. denaturing/50° C. annealing/53° C. extension. The denaturation temperature was then lowered to 80° C., and 2.5M 1,5-pentanediol tested. Amplification of PSM using a 75° C. denaturing temperature was not attempted.

The next data set has as its system 50% GC DNA. Kind of data set: Predicted cosolvent-induced Tm depression of DNA. It counts as physicochemical. As to conditions: 1.0M 1,5-pentanediol, 0.7M 1,6-hexanediol, linearity not verified. On the procedure:
The compounds utilized in the first phase (testing using 1.0M 1,5-pentanediol and 0.7M 1,6-hexanediol at temperatures between 46 and 62° C.) were chosen on the basis of the following rationale. The optimal additive for a low temperature PCR reaction is one that lowers the melting temperature of DNA as much as possible while minimally compromising polymerase activity. 1,5-Pentanediol and 1,6-hexanediol are both powerful DNA melting agents. In addition, it was found in the 62° C. activity studies that the rate of activity decline with concentration of 1,5-pentanediol was roughly equivalent to that of 1,2-butanediol, despite the fact that the former is a much stronger DNA denaturant. 1.0M 1,5-pentanediol and 0.7M 1,6-hexanediol are predicted to lower the Tm of a 50% GC DNA by approximately the same amount: 19° C.

Setting [3] is: 80/50/53° C., 2.5 M 1,5-pentanediol.
Where [4] appears, read: 85/50/53° C., 1.5 M 1,5-pentanediol.

With `CCC(O)CO` (stereo not shown) [1,2-Butanediol], the Potency is given as 0.91 in data set [1] (92/62° C. denaturation/extension, normalized: 1,5-pentanediol (95/72° C.) = 1); “High product yield” in data set [1] (92/62° C. denaturation/extension, normalized: 1,5-pentanediol (95/72° C.) = 1, listed as 1,2-butanediol); 0.00 in data set [1] (92/72° C. denaturation/extension, normalized: 1,5-pentanediol (95/72° C.) = 1). Also, the Effective in data set [1] (92/62° C., concentration interval over which target band minus control is at least 50% of maximum volume) is reported as 0.72-1.02.

For the compound `OCCCCCO` [1,5-Pentanediol], the “PSM Specificity” value in data set [2] (setting [3]) was 92%; in data set [2] (setting [4]), 86%. Moreover, the “PSM Potency” value in data set [2] (setting [3]) is on record as 1.40; in data set [2] (80/50/53° C., 2.5 M 1,5-pentanediol, listed as 1,5-pentanediol), “Substantial amplification”; in data set [2] (85/50/53° C., 1.0 M 1,5-pentanediol), 0.00; in data set [2] (85/50/53° C., 1.0 M 1,5-pentanediol, listed as 1,5-pentanediol) it was “did not amplify the target sequence”; in data set [2] (setting [4]), 2.08; in data set [2] (85/50/53° C., 1.5 M 1,5-pentanediol, listed as 1,5-pentanediol), “successful”. In the data set on 50% GC DNA, the “lowering of the Tm of a 50% GC DNA” value was approximately 19 °C.
